The target in one test is human cyclin B-CDK1 (Homo sapiens, UniProt P06493). The experiment in a line: CDK1 HTRF kinase assay (Ki measurement). The format is biochemical. The following applies: ATP at 3x Km. The method, then:
(§1) To determine inhibition of Cdk4, Cdk2 and Cdk1 activity, kinase assays were conducted using FlashPlate™ assays (NEN™-Life Science Products). FlashPlate assays were performed using recombinant human cyclin B-CDK1, human cyclin E-CDK2 or human cyclin D1-CDK4 complexes. GST-cyclinE (GST-cycE), CDK2, GST-cyclinB (GST-cycB), CDK1, GST-CDK4 and cyclin D1 (cycD1) cDNA clones in baculovirus vectors were provided by Dr. W. Harper at the Baylor College of Medicine, Houston, Tex.
(§2) Alternatively, inhibition activity may be measured using Ki. […] These were done in 96-well format and read in 384-well plate format. The assays were run at 3× their respective Kms for ATP.
Twenty microliters were added to the wells of a 96-well plate. […] Blank wells without CDK4 were included. The plates were incubated at 37° C. for 30 minutes with shaking. […] After 30 minutes at 37° C., 15 μl/well of 3 nM Lance-Eu-W1024 labeled anti-rabbit IgG and 60 nM Allophycocyanin conjugated anti-His6 (PerkinElmer Life Sciences) in 25 mM Hepes, pH 7.0, 0.5 mg/ml BSA were added. Following a one hour incubation at 37 deg C., 35 μl of each well, in duplicate, were transferred to 384-well black plates. The plates were read using either ViewLux or Victor V readers (PerkinElmer Life Sciences) using an excitation wavelength of 340 nm and dual emission wavelengths of 615 nm and 665 nm. […] For ATP competitive inhibitors, the Ki values were calculated according to the following equation: Ki=IC50/(1+S/Km) where S refers to the substrate concentration and Km refers to the Michaelis-Menten constant.
(§3) The CDK1 and CDK2 assays were similarly run except for small differences in reagent and protein concentrations:
The compound and enzyme buffers for both assays contained 10 mM MgCl2. […] CDK1 at a reagent concentration of 0.15 ng/ul and CDK2 at a reagent concentration of 0.06 ng/ul were used.

A further test concerns the target human cyclin E-CDK2 (Homo sapiens, UniProt P24941). Nature of the test: CDK2 HTRF kinase assay (Ki measurement). As to conditions: HTRF assay, ATP at 3x Km; read-out: Ki CDK2. In kind it is biochemical. As to the method: as §1, §2
Twenty microliters were added to the wells of a 96-well plate. […] Blank wells without CDK4 were included. The plates were incubated at 37° C. for 30 minutes with shaking. […] After 30 minutes at 37° C., 15 μl/well of 3 nM Lance-Eu-W1024 labeled anti-rabbit IgG and 60 nM Allophycocyanin conjugated anti-His6 (PerkinElmer Life Sciences) in 25 mM Hepes, pH 7.0, 0.5 mg/ml BSA were added. Following a one hour incubation at 37 deg C., 35 μl of each well, in duplicate, were transferred to 384-well black plates. The plates were read using either ViewLux or Victor V readers (PerkinElmer Life Sciences) using an excitation wavelength of 340 nm and dual emission wavelengths of 615 nm and 665 nm.
as §3
The compound and enzyme buffers for both assays contained 10 mM MgCl2.

Test [1] deals with HCT116 colorectal carcinoma cell line. The experiment in a line: Tetrazolium dye proliferation assay (MTT assay). In kind it is cell-based. As to conditions: Homo sapiens, HCT-116, HCT116 cells. As to the method:
Proliferation was evaluated by the tetrazolium dye assay according to the procedure of Denizot and Lang (Denizot, F. and Lang, R. J Immunol Methods 1986, 89, 271-277). The cell line used was HCT116, a colorectal carcinoma cell line obtained from the American Type Cell Culture Collection (ATCC; Rockville, Md.). The cells were grown in McCoy's 5A medium supplemented with 10% FCS and L-glutamine.
Cells were plated at the appropriate seeding density to give logarithmic growth over the course of the assay in a 96-well tissue culture plate. Plates were incubated overnight at 37° C. in a humidified incubator with 5% CO2. The next day, test compounds were serially diluted to four times the final concentration in the appropriate medium containing 1.2% DMSO. One-fourth final volume of each dilution was added in duplicate to the plates containing cells. The same volume of 1.2% DMSO in medium was added to a row of “control wells” such that the final concentration of DMSO in each well was 0.3%. Wells to which no cells were added served as the “blank.” Wells to which no inhibitor was added served as “no inhibitor control.” The plates were) returned to the incubator, and at set time points (determined by their growth curves) plates were analyzed as described below.
3-(4,5-dimethylthiazole-2-yl)-2,5-diphenyl-2H-tetrazolium bromide (thiazolyl blue; MTT; Sigma) was added to each well to yield a final concentration of 1 mg/ml. Plates were returned to the incubator for 2.5-3 hours at 37° C. The MTT-containing medium was removed and the resulting formazan metabolite was solubilized in 100% ethanol with shaking for 15 minutes at room temperature. Absorbance readings were taken in a microtiter plate reader (Dynatech and Molecular Devices plate readers were used interchangeably) at a wavelength of 570 nm with a 650 nm reference. Percent inhibition (% INH) is calculated by subtracting the absorbance of the blank well from all wells, then subtracting the ratio of the average absorbance of each test duplicate (SAVE) by the average of the controls (CAVE) from 1.00. The final number is then multiplied by 100 (% INH=(1.00−SAVE/CAVE)×100). The concentration at which 50% inhibition of cell proliferation is obtained (the IC50) is determined from the linear regression of a plot of the logarithm of the concentration versus percent inhibition.

The next test deals with human cyclin D1-CDK4 (Homo sapiens, UniProt P11802). Nature of the test: CDK4 HTRF kinase assay (Ki measurement). In kind it is biochemical. The following applies: ATP at 3x Km. The method, then: To determine inhibition of Cdk4, Cdk2 and Cdk1 activity, kinase assays were conducted using FlashPlateTM assays (NENTM-Life Science Products). […] W. Harper at the Baylor College of Medicine, Houston, Tex. Proteins were co-expressed in High FiveTM insect cells and the complex was purified on glutathione Sepharose resin (Pharmacia, Piscataway, N.J.) as previously described (Harper, J. W. et al. Cell 1993, 75, 805-816). A 6×-Histidine tagged […]) was used as the substrate for the cycD1-CDK4, cycB-CDK1 and the cycE-CDK2 assays (the expression plasmid was provided by Dr. Veronica Sullivan, Department of Molecular Virology, Roche Research Centre, Welwyn Garden City, United Kingdom). The Rb protein is a natural substrate for phosphorylation by CDK4, CDK2 and CDK1 (see Herwig and Strauss Eur. J. Biochem. Vol. 246 (1997) pp. 581-601 and the references cited therein). Alternatively, inhibition activity may be measured using Ki. Using the protein constructs described above in Example 19A above, CDK1, CDK2, and CDK4 HTRF assays were set up. These were done in 96-well format and read in 384-well plate format. The assays were run at 3× their respective Kms for ATP. In the CDK4 assay, test compounds were diluted to 3× their final concentrations in 25 mM Hepes, pH 7.0, 6.25 mM MgCl2, 1.5 mM DTT, 135 μM ATP. The DMSO concentration was no greater than 4.76%. Twenty microliters were added to the wells of a 96-well plate. The kinase reaction was initiated by the addition of 40 μl/well of a solution containing 0.185 μM Rb and 2.25 μg/ml CDK4 in 25 mM Hepes, pH 7.0, 6.25 mM MgCl2, 0.003% Tween-20, 0.3 mg/ml BSA, 1.5 mM DTT. Blank wells without CDK4 were included. The plates were incubated at 37° C. for 30 minutes with shaking. The kinase reaction was terminated by the addition of 15 μl/well of 1.6 uM anti-phospho-Rb ([…]) antibody (Cell Signaling Inc.) in 25 mM Hepes, pH 7.0, 24 mM EDTA, 0.2 mg/ml BSA. After 30 minutes at 37° C., 15 μl/well of 3 nM Lance-Eu-W1024 labeled anti-rabbit IgG and 60 nM Allophycocyanin conjugated anti-His6 (PerkinElmer Life Sciences) in 25 mM Hepes, pH 7.0, 0.5 mg/ml BSA were added. Following a one hour incubation at 37 deg C., 35 μl of each well, in duplicate, were transferred to 384-well black plates. The plates were read using either ViewLux or Victor V readers (PerkinElmer Life Sciences) using an excitation wavelength of 340 nm and dual emission wavelengths of 615 nm and 665 nm. IC50 values (the concentration of test compounds reducing the assay control fluorescence read-out by 50%) were first calculated from net readings at 665 nm, normalized for europium readings at 615 nm. For ATP competitive inhibitors, the Ki values were calculated according to the following equation: […]
human cyclin D1-CDK4, sequence (P11802 whole entry): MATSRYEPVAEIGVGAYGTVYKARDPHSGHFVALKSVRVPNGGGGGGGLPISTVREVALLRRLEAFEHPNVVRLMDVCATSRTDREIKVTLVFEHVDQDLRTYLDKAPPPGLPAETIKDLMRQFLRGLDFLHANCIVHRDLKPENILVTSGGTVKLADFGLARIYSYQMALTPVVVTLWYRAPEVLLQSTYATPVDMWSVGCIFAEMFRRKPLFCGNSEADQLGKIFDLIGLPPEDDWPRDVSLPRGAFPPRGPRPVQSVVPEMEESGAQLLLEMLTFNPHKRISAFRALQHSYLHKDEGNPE
human cyclin D1-CDK4, sequence (P24385 whole entry partner): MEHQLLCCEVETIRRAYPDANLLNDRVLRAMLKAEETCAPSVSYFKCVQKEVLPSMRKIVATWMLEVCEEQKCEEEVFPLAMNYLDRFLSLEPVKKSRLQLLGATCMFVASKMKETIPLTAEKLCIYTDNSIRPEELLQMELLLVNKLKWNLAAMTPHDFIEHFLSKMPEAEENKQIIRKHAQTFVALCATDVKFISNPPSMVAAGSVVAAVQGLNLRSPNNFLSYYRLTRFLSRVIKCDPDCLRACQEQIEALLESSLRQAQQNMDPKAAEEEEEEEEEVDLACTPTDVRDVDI

human cyclin B-CDK1, sequence (P06493 whole entry): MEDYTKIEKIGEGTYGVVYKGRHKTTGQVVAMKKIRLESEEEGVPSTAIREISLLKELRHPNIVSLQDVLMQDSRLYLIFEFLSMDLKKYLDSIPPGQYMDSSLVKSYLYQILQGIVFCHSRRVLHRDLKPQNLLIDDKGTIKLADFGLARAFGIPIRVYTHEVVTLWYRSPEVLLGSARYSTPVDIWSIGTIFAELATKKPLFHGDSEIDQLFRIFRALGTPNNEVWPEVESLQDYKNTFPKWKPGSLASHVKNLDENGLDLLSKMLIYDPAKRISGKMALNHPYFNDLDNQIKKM
human cyclin B-CDK1, sequence (P14635 whole entry partner): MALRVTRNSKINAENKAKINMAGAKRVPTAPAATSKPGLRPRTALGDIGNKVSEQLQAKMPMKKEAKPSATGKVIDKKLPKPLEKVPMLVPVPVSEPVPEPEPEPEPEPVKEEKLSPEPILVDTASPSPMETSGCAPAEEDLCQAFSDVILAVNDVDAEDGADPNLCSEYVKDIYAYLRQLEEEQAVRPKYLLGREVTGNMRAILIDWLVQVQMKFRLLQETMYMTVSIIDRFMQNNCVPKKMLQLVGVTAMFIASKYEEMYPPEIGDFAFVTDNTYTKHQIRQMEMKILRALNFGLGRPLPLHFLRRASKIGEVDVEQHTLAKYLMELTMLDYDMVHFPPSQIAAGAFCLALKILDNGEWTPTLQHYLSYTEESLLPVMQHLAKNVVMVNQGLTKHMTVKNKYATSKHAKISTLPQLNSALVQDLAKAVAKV

Take `COc1ccc(F)c(F)c1C(=S)c1cnc(N[C@H]2CC[C@H](NS(C)(=O)=O)CC2)nc1N` [Example 2, N-{4-[4-Amino-5-(2,3-difluoro-6-methoxy-thiobenzoyl)-pyrimidin-2-ylamino]-cyclohexyl}methanesulfonamide]: the results for the Ki at human cyclin B-CDK1, on human cyclin E-CDK2 and at human cyclin D1-CDK4 were 0.27 nM, 0.18 nM and 0.6 nM, respectively. The compound further gave an IC50 in test [1] of 12 nM.
With `CS(=O)(=O)N1CCC(Nc2ncc(C(=S)c3cccs3)c(N)n2)CC1` [Example 11, [4-Amino-2-(1-methanesulfonyl-piperidin-4-ylamino)-pyrimidin-5-yl]-thiophen-2-yl-methanethione], the figures for the inhibition constant (Ki) at human cyclin B-CDK1, on human cyclin E-CDK2 and on human cyclin D1-CDK4 were 43 nM, 12 nM and 10 nM, respectively.
Consider `COc1ccc(F)c(F)c1C(=S)c1cnc(NC2CCN(S(=O)(=O)c3ccccn3)CC2)nc1N` [Example 10, {4-Amino-2-[1-(pyridine-2-sulfonyl)-piperidin-4-ylamino]-pyrimidin-5-yl}-(2,3-difluoro-6-methoxy-phenyl)-methanethione], for which the results for the Ki at human cyclin B-CDK1 and on human cyclin E-CDK2 were 3 nM and 1 nM, respectively.
Consider `CS(=O)(=O)N1CCC(Nc2ncc(C(=S)c3c(F)c(F)cc4ncoc34)c(N)n2)CC1` [Example 7, [4-Amino-2-(1-methanesulfonyl-piperidin-4-ylamino)-pyrimidin-5-yl]-(5,6-difluoro-benzooxazol-7-yl)-methanethione], for which the results for the Ki at human cyclin B-CDK1, at human cyclin E-CDK2 and on human cyclin D1-CDK4 were 6 nM, 16 nM and 5 nM, respectively.
Consider `COc1ccc(F)c(F)c1C(=S)c1cnc(NC2CCN(S(C)(=O)=O)C2)nc1N` (stereo not drawn) [Example 18, [4-Amino-2-(1-methanesulfonyl-pyrrolidin-3-ylamino)-pyrimidin-5-yl]-(2,3-difluoro-6-methoxy-phenyl)-methanethione], for which the inhibition constant (Ki) on human cyclin E-CDK2 stood at 1 nM; at human cyclin D1-CDK4, 2.8 nM.
`COc1ccc(F)c(F)c1C(=S)c1cnc(NC2CCN(S(C)(=O)=O)CC2)nc1N` [Example 1, [4-Amino-2-(1-methanesulfonyl-piperidin-4-ylamino)-pyrimidin-5-yl]-(2,3-difluoro-6-methoxy-phenyl)-methanethione]: the Ki is 0.13 nM on human cyclin B-CDK1 and 0.17 nM at human cyclin D1-CDK4. In test [1], this compound returned an IC50 of 20 nM.
Consider `COc1ccc(F)c(F)c1C(=S)c1cnc(NC2CCN(S(=O)(=O)CCCN3CCOCC3)CC2)nc1N` [Example 9, {4-Amino-2-[1-(3-morpholin-4-yl-propane-1-sulfonyl)-piperidin-4-ylamino]-pyrimidin-5-yl}(2,3-difluoro-6-methoxy-phenyl)-methanethione], for which the Ki was 14 nM on human cyclin B-CDK1 and 1 nM on human cyclin E-CDK2.
Take `COc1ccc(F)c(F)c1C(=S)c1cnc(Nc2ccc(S(C)(=O)=O)cc2)nc1N` [Example 12, [4-Amino-2-(4-methanesulfonyl-phenylamino)-pyrimidin-5-yl]-(2,3-difluoro-6-methoxy-phenyl)-methanethione]: the Ki is 3 nM at human cyclin B-CDK1, 1 nM on human cyclin E-CDK2 and 7 nM on human cyclin D1-CDK4.
Turning to `CS(=O)(=O)N1CCC(Nc2ncc(C(=S)c3ccccc3)c(N)n2)CC1` [Example 16, [4-Amino-2-(1-methanesulfonyl-piperidin-4-ylamino)-pyrimidin-5-yl]-phenyl-methanethione], the Ki on human cyclin B-CDK1 turned out to be 27 nM; at human cyclin E-CDK2, 10 nM; at human cyclin D1-CDK4, 15 nM.
The matching figures for `COc1ccc(F)cc1C(=S)c1cnc(NCCCNS(C)(=O)=O)nc1N` [Example 8, N-{3-[4-Amino-5-(5-fluoro-2-methoxy-thiobenzoyl)-pyrimidin-2-ylamino]-propyl}-methanesulfonamide]: 89 nM, 65 nM and 37 nM.
As to `COc1ccc(F)cc1C(=S)c1cnc(NC2CCN(C(=O)OC(C)(C)C)CC2)nc1N` [Example 17, 4-[4-Amino-5-(5-fluoro-2-methoxy-thiobenzoyl)-pyrimidin-2-ylamino]-piperidine-1-carboxylic acid tert-butyl ester], the Ki on human cyclin B-CDK1 amounted to 261 nM; on human cyclin E-CDK2, 195 nM.
